Data reported in EP2815749A1, “Solid form of 4-amino-2-(2,6-dioxopiperidine-3-yl)isoindoline-1,3-dione having specified X-ray diffraction pattern” (IP Gesellschaft für Management mbH, priority 2013, dated 2014).
Structures can show the parent of a compound that is named as a salt.

Columns and labels:
[1] = Hygroscopicity of forms of Compound of formula (V) (DVS); type: physicochemical; conditions: between 0% and 90% relative humidity; 25°C
Protocol: Differential Scanning Calorimetry (DSC): DSC analyses were performed on a TA instrument Q2000 Differential Scanning Calorimeter. Indium was used as the calibration standard. Approximately 2-5 mg of sample was placed into a DSC pan. The sample was heated under nitrogen at a rate of 10°C/min, up to a final temperature of 350°C. Melting points were reported as the extrapolated onset temperatures. Thermogravimetric Analysis (TGA): TGA analyses were performed on a TA instrument Q5000 Thermogravimetric Analyzer. Calcium oxalate was used for a performance check. Approximately 2-10 mg of accurately weighed sample was placed on a pan and loaded into the TGA furnace. The sample was heated under nitrogen at a rate of 10°C/min, up to a final temperature of 300°C. Attenuated Total Reflection Fourier-Transform Infrared Analysis (ATR-FTIR): FTIR analyses were performed on the samples "as is" using an attenuated total reflection (ATR) attachment on a Nicolet 6700 FTIR spectrometer. After a background of ambient lab conditions was obtained, samples were placed on the ATR, compressed with the anvil, and spectrum acquired. Miniature Scanning Electron Microscope (Mini SEM) Morphology analysis of the samples was carried out on an Even Mini SEM. Small amounts of samples were dispersed on a sample holder, and then coating with gold viewed with 200x and 1000x magnification. Dynamic Vapor Sorption (DVS) Hygroscopicity was determined on a Surface Measurement Systems DVS. Typically a sample size of 5-30 mg was loaded into the DVS instrument sample pan and the sample was analyzed on a DVS automated sorption analyzer at 25°C. The relative humidity was increased from 0 % to 90 %RH at 10 %RH step. The relative humidity was then decreased in a similar manner to accomplish a full adsorption/desorption cycle. The entire scope of this invention is not limited by the specific examples described herein, but is more readily understood with reference to the appended claims.

[2] = Equilibration and form conversion experiments of Compound of formula (V); type: physicochemical; conditions: Ambient, 8 days
Protocol: Equilibration: Equilibration studies using single, binary and ternary combinations of batch solvents (water, acetone, and acetonitrile) were investigated to mimic key steps in manufacturing 3-(4-nitro-1-oxoisoindolin-2-yl)piperidine-2,6-dione. Materials of 3-(4-nitro-1-oxoisoindolin-2-yl)piperidine-2,6-dione and solvent or solvent mixtures were added to a glass vial to achieve free-flowing slurry and allowed to equilibrate at the specified temperature. After equilibration for 8 days, the solid phase was separated via filtration. The solid phase was then dried under air and analyzed by XRPD. List of Experimental Conditions for Equilibration:
A total of four batches of 3-(4-nitro-1-oxoisoindolin-2-yl)piperidine-2,6-dione were characterized by XRPD, DSC, TGA, ATR-FTIR and DVS, as described in section 6.5. The solid form represented by the batch 1 was designated as Form A ({drug5b}); the solid form represented by the batch 4 was designated as Form B ({drug5c}); the batches 2 and 3 were determined to be mixtures of Forms A and B, with Form B ({drug5c}) dominating the patterns. The equilibration experiments were performed using batches 2, 3 and 4, and the results are described in Table 2. Results for Equilibration Experiments:
Results from Additional Form conversion Experiments: […]

[3] = as above; type: physicochemical; conditions: for Form by XRPD after equilibration: 6 hours
[4] = In vivo pharmacokinetics of Compound (VI) free base and hemisulfate salt capsules; conditions: dogs, oral capsule, 150 mg of Compound (VI) (or equivalent), after pretreatment with famotidine (40 mg)
Protocol: An aliquot of 0.050 mL of dog EDTA plasma was used for the assay. […] A 450 µï^ portion of the organic layer was removed and evaporated to dryness. The residue was reconstituted in 300 µl, of the reconstitution solution (30% acetonitrile in 10 mM NH40Ac with 0.01% acetic acid). All liquid transfer steps were performed using a Perkin Elmer JANUS Mini® liquid handler except for the addition of the internal standard solution. A 5 µï^ aliquot of the extracted sample was injected to uHPLC-MS/MS system. The uHPLC was performed on a LEAP 4X Ultra uHPLC system with LEAP HTC PAL autosampler. Mobile phase A contained 10 mM NH4OAc and 0.01% acetic acid in ACN/water (10:90), and mobile phase B contained 10 mM NH4OAc and 0.01% acetic acid in ACN/water (90: 10). […] The flow rate was 0.6 mL/min and column temperature was maintained at 60°C condition. Detection was accomplished using an AB Sciex Triple Quad 5500 mass spectrometer in positive ESI with turbo ion spray ionization and using multiple reaction monitoring (MRM) mode. […] Data acquisition and quantification were performed using AB Sciex Analyst® 1.5.1 software.

[5] = Salt screening and crystalline salt characterization of Compound (VI); conditions: for Hygroscopicity: ambient temperature and relative humidity conditions, hemisulfate salt
Protocol: The screening examined acid type, acid level (equivalents), and/or type of crystallization solvent. Each plate contained 96 well plates (8 rows of 12 columns per plate). […] The solution (12.5 mL) was transferred to 24 vials. To each vial was added 0.25 M EtOH stock solutions of the following acids:
The content of each vial was transferred to 12 crystallization wells and evaporated to dryness. Upon evaporation, each well was charged with 100 µl of solvent using a robotic liquid handler. The following crystallization solvents were tested: methyl isobutyl ketone (MIBK), ethyl acetate, toluene, THF, acetonitrile, acetone, isopropanol, ethanol, methanol, 1,2-dichloroethylene, isopropanol/water (50:50), and water. Next, the plates were sealed with Teflon septa and subjected to temperature cycling. […] After the heating/cooling cycle, the contents of the wells were characterized by birefringent imaging. Perceived crystalline hits were further characterized by PXRD analysis.

With O=C1CCC(N2Cc3c(cccc3[N+](=O)[O-])C2=O)C(=O)N1 (stereo not drawn) [Form B ({drug5c}), 3-(4-nitro-1-oxoisoindolin-2-yl)piperidine-2,6-dione] the total mass change [1] was 0.39%, the “Form by XRPD after equilibration” value ([2]; Acetone/water (1:1)) was “converts to Form A” and the “Form by XRPD after equilibration” value ([2]; Acetonitrile/water (1:1)) was “converts to Form A”. For the same molecule, the “Form by XRPD after equilibration” value ([2]; Acetonitrile/water/acetone (1:1:1)) was “converts to Form A”, the “Form by XRPD after equilibration” value ([2]; acetone) was “converts to Form A” and the “Form by XRPD after equilibration” value ([2]; water) was “converts to Form A”. The “Form by XRPD after equilibration” value ([3]; Acetonitrile, 80 °C (or reflux)) was “converts to Form A”, the “Form by XRPD after equilibration” value ([3]; Acetonitrile/water (2:1), 60 °C) was “converts to Form A” and the “XRPD Result after form conversion experiment” value ([3]; Heated to 220 °C for 4 hours) was “converts to Form A”.
For N[C@@H]1c2cccnc2[C@H](OC(=O)N2CCC(n3c(=O)[nH]c4ncccc43)CC2)CC[C@H]1c1cccc(F)c1F [Compound (VI), N-(5S,6S,9R)-5-amino-6-(2,3-10-difluorophenyl)-6,7,8,9-tetrahydro-5H-cyclohepta[b]pyridin-9-yl-4-(2-oxo-2,3-dihydro-1H-imidazo[4,5-b]pyridin-1-yl)piperidine-1-carboxylate], the bioavailability ([4]; listed as Compound (VI) free base) was 4.54%.
For N[C@@H]1c2cccnc2[C@H](OC(=O)N2CCC(n3c(=O)[nH]c4ncccc43)CC2)CC[C@H]1c1cccc(F)c1F [hemisulfate salt of Compound (VI), (5S,6S,9R)-5-amino-6-(2,3-dfluorophenyl)-6,7,8,9-tetrahydro-5H-cyclohepta[b] pyridin-9-yl 4-(2-oxo-2,3-dihydro-1 H-imidazo[4,5-b]pyridin-1-yl)piperidine-1-carboxylate, hemisulfate salt], the Chemical stability [5] was “chemically stable”, the Physical stability [5] was “physically stable” and the Hygroscopicity [5] was “low hygroscopicity”. The Hygroscopicity ([5]; listed as Sulfuric acid) was “low/non-hygroscopic at ambient temperatures and relative humidity conditions” and the bioavailability ([4]; hemisulfate salt) was 34.73%.
